Measurements taken from patent US20060142566A1, “Enantioselective process for the preparation of both enantiomers of 10,11-dihydro-10-hydroxy-5h-dibenz[b,f]azepine-5-carboxamide and new crystal forms thereof” (priority 2002, published 2006).

Legend:
Format in all cases: physicochemical
[1] = hygroscopicity of the crystal modifications
[2] = stability of the crystal forms (bulk stability, thermodynamic stability); details: solid form, storage
[3] = solubility in organic and aqueous solutions; details: compared to modification B

Row | Structure (SMILES) | hygroscopicity [1] | stability of crystal form (thermodynamic) [2] | solubility [3]
1 | NC(=O)N1c2ccccc2CC(O)c2ccccc21 (single isomer, unassigned) [modification B, (R)- or (S)-10,11-dihydro-10-hydroxy-5H-dibenz[b,f]azepine-5-carboxamide] | Neither modification A nor modification B are hygroscopic | thermodynamically stable crystalline form | –
2 | NC(=O)N1c2ccccc2CC(O)c2ccccc21 (single isomer, unassigned) [modification A, (R)- or (S)-10,11-dihydro-10-hydroxy-5H-dibenz[b,f]azepine-5-carboxamide] | Neither modification A nor modification B are hygroscopic | – | better soluble in organic and aqueous solutions than modification B
